Source: patent publication US20030045557A1, “Thiadiazoles and oxadiazoles and their use as phosphodiesterase-7 inhibitors” (priority 2000, published 2003)
Structures can show the parent of a compound that is named as a salt.

molecular target: T1, PDE7A1 (Homo sapiens, UniProt Q13946); experiment: In vitro inhibition of phosphodiesterase 7 (enzymatic activity, cAMP substrate 50 nM); assay type: biochemical; settings: PDE7A1 expressed in Sf 21 insect cells; cAMP 50 nM; reaction 10 minutes; read-out: IC50 (PDE7)
T1 construct: made in house; host or cells: Sf21 insect cells (baculovirus expression system)
T1 sequence (Q13946 whole entry, species assumed): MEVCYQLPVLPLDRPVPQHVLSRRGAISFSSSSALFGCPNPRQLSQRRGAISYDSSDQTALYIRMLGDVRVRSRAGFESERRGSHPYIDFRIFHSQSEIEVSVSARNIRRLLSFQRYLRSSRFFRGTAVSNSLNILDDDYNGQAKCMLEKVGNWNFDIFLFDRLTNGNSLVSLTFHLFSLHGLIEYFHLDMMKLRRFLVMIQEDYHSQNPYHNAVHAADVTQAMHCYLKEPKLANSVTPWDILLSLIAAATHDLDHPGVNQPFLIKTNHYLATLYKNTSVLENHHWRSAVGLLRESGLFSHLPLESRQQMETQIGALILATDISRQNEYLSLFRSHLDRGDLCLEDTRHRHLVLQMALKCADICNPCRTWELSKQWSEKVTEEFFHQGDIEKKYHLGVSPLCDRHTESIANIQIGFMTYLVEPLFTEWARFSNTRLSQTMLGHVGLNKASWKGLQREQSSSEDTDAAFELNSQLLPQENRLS
Protocol: The capacity of the compounds of the invention to inhibit cyclic nucleotide phosphodiesterases was evaluated by measuring their IC50 (concentration necessary to inhibit the enzymatic activity by 50%).
PDE3A3, PDE4D3, and PDE7A1 were cloned and expressed in insect cells Sf 21 using the baculovirus expression system. The source of PDE103 and of PDE503 were human cell lines (respectively TPH1 human monocytes and MCF7 human breast adenocarcinoma). The various types of phosphodiesterases were obtained partially purified on an anion exchange column (Mono Q) according to a method adapted from Lavan B. E., Lakey T., Houslay M.D., Biochemical Pharmacology, 1989;38(22):4123-4136.
Measurement of the enzymatic activity for the various types of PDE was then made according to a method adapted from Thompson W. J. et al., Advances in Cyclic Nucleotide Research, ed. G. Brooker et al. New York: Raven Press, 1979;10:69-92.
The substrate used was cGMP for PDE1 and PDE5 and cAMP for PDE3, PDE4, and PDE7. The substrate concentration was 0.2 μM for PDE1, PDE3, and PDE5, 0.25 μM for PDE4, and 50 nM for PDE7.
The enzymatic reaction was stopped after 1 hour for PDE1, PDE3, and PDE5 and 10 minutes for PDE4 and PDE7.

SMILES | IC50 [nM]
Cn1nc(-c2ccc(Cl)cc2)s/c1=N\C1CC2CCC1C2 (centres unmarked) [Example I7, Bicyclo[2.2.1]hept-2-yl-[5-(4-chloro-phenyl)-3-methyl-3H-[1,3,4]thiadiazol-2-ylidene]-amine] | 1050
COc1cc(-c2nn(C)/c(=N/C3CCCCC3)s2)cc(OC)c1O [Example I23, 4-(5-Cyclohexylimino-4-methyl-4,5-dihydro-[1,3,4]thiadiazol-2-yl)-2,6-dimethoxy-phenol] | 850
COC(=O)c1cccc(-c2nn(C)/c(=N/C3CCCCC3)s2)c1 [Example I21, 3-(5-Cyclohexylimino-4-methyl-4,5-dihydro-[1,3,4]thiadiazol-2-yl)-benzoic acid methyl ester] | 150
Cn1nc(-c2ccc(S(C)(=O)=O)cc2)s/c1=N\c1cccc(C(=O)O)c1 [Example I4] | 150
Cn1nc(-c2ccc(C(=O)NO)cc2)s/c1=N\C1CCCCC1 [I37,2, 4-(5-Cyclohexylimino-4-methyl-4,5-dihydro-[1,3,4]thiadiazol-2-yl)-N-hydroxy-benzamide] | 1200
COc1cc(-c2nn(C)/c(=N/C3CCCCC3)s2)cc(O)c1OC [I18,4, 5-(5-Cyclohexylimino-4-methyl-4,5-dihydro[1,3,4]thiadiazol-2-yl)-2,3-dimethoxy-phenol;compound with trifluoro-methanesulfonic Acid] | 92
Cn1nc(-c2cccc(O)c2)s/c1=N\C1CCCCC1 [Example I36, 3-(5-Cyclohexylimino-4-methyl-4,5-dihydro-[1,3,4]thiadiazol-2-yl)-phenol] | 290
Cn1nc(-c2ccc3cccc(O)c3n2)s/c1=N\C1CCCCC1 [Example I24, 2-(5-Cyclohexylimino-4-methyl-4,5-dihydro-[1,3,4]thiadiazol-2-yl)-quinolin-8-ol] | 360
Cn1nc(-c2ccc(C(F)(F)F)cc2)s/c1=N\C1CCCCC1 [Example I11, Cyclohexyl-[3-methyl-5-(4-trifluoromethyl-phenyl)-3H-[1,3,4]thiadiazol-2-ylidene]-amine] | 980
Cn1nc(-c2ccc(S(N)(=O)=O)cc2)s/c1=N\C1CCCCC1 [Example I30, 4-(5-Cyclohexylimino-4-methyl-4,5-dihydro-[1,3,4]thiadiazol-2-yl)-benzenesulfonamide] | 140
Cn1nc(-c2ccc(Cl)cc2)s/c1=N\c1cccc(C(=O)O)c1 [Example I1, 3-[5-(4-Chloro-phenyl)-3-methyl-3H-[1,3,4]thiadiazol-2-ylideneamino]-benzoic acid] | 150
COc1ccc(/C=C/c2nn(C)/c(=N/C3CCCCC3)s2)cc1O [Example I26, 5-[(E)-2-(5-Cyclohexylimino-4-methyl-4,5-dihydro-[1,3,4]thiadiazol-2-yl)-vinyl]-2-methoxy-phenol] | 400
Cn1nc(-c2cc(Cl)cc(Cl)c2)s/c1=N\C1CCCCC1 [I17,1, Cyclohexyl-[5-(3,5-dichloro-phenyl)-3-methyl-3H-[1,3,4]thiadiazol-2-ylidene]-amine] | 1300
COc1ccc(NC(=O)c2ccc(-c3nn(C)/c(=N/C4CCCCC4)s3)cc2)c(OC)n1 [I37,6, 4-(5-Cyclohexylimino-4-methyl-4,5-dihydro[1,3,4]thiadiazol-2-yl)-N-(2,6-dimethoxy-pyridin-3-yl)-benzamide] | 97
COc1ccc(-c2nn(C)/c(=N/C3CCCCC3)s2)cc1OC [Example I34, Cyclohexyl-[5-(3,4-dimethoxy-phenyl)-3-methyl-3H-[1,3,4]thiadiazol-2-ylidene]-amine] | 630
COc1ccc(-c2nn(C)/c(=N/C3CCCCC3)s2)cc1Br [Example I35, [5-(3-Bromo-4-methoxy-phenyl)-3-methyl-3H-[1,3,4]thiadiazol-2-ylidene]-cyclohexyl-amine] | 580
COc1cc(-c2nn(C)/c(=N/C3CCCCC3)s2)cc(OC)c1OC [Example I41, Cyclohexyl-[3-methyl-5-(3,4,5-trimethoxy-phenyl)-3H-[1,3,4]thiadiazol-2-ylidene]-amine] | 1300
CC(C)NC(=O)c1ccc(-c2nn(C)/c(=N/C3CCCCC3)s2)cc1 [I37,7, 4-(5-Cyclohexylimino-4-methyl-4,5-dihydro[1,3,4]thiadiazol-2-yl)-N-isopropyl-benzamide] | 86
Cn1nc(-c2cccc(C(=O)O)c2)s/c1=N\C1CCCCC1 [I21,1, 3-(5-Cyclohexylimino-4-methyl-4,5-dihydro-[1,3,4]thiadiazol-2-yl)-benzoic acid] | 870
Cn1nc(-c2cccc(Cl)c2)s/c1=N\C1CCCCC1 [Example I13, [5-(3-Chloro-phenyl)-3-methyl-3H-[1,3,4]thiadiazol-2-ylidene]-cyclohexyl-amine] | 700
Cn1nc(-c2ccc(-c3ccccn3)s2)s/c1=N\C1CCCCC1 [I18,2, Cyclohexyl-[3-methyl-5-(5-pyridin-2-yl-thiophen-2-yl)-3H-[1,3,4]thiadiazol-2-ylidene]-amine] | 320

The remaining lines, values ahead:

IC50 [nM] | SMILES
62 | Cn1nc(-c2ccc(C(N)=O)cc2)s/c1=N\C1CCCCC1 [I37,3, 4-(5-Cyclohexylimino-4-methyl-4,5-dihydro-[1,3,4]thiadiazol-2-yl)-benzamide]
1200 | Cn1nc(-c2ccc(Cl)cc2)s/c1=N\[C@@H]1CCCC[C@@H]1O (relative stereo) [I3,25, (1R*,2S*)-2-[5-(4-Chloro-phenyl)-3-methyl-3H-[1,3,4]thiadiazol-2-ylideneamino]-cyclohexanol]
1200 | Cn1nc(-c2ccc(Cl)cc2)s/c1=N\C1CCCCC1 [I18,5, [5-(4-Chloro-phenyl)-3-methyl-3H-[1,3,4]thiadiazol-2-ylidene]-cyclohexyl-amine]
1000 | Cn1nc(-c2ccc(O)c(O)c2)s/c1=N\C1CCCCC1 [Example I22, 4-(5-Cyclohexylimino-4-methyl-4,5-dihydro-[1,3,4]thiadiazol-2-yl)-benzene-1,2-diol; compound with trifluoro methanesulfonic acid]
290 | Cn1nc(-c2ccncc2)s/c1=N\C1CCCCC1 [Example I12, Cyclohexyl-(3-methyl-5-pyridin-4-yl-3H-[1,3,4]thiadiazol-2-ylidene)-amine]
93 | Cn1nc(-c2ccc(C(=O)Nc3cccc4cccnc34)cc2)s/c1=N\C1CCCCC1 [I37,5, 4-(5-Cyclohexylimino-4-methyl-4,5-dihydro[1,3,4]thiadiazol-2-yl)-N-quinolin-8-yl-benzamide]
150 | Cn1nc(-c2ccc(C(=O)Nc3nn[nH]n3)cc2)s/c1=N\C1CCCCC1 [I37,4, 4-(5-Cyclohexylimino-4-methyl-4,5-dihydro-[1,3,4]thiadiazol-2-yl)-N-(2H-tetrazol-5-yl)-benzamide hydrochloride salt]
72 | CN1CCC(N(C)C(=O)c2ccc(-c3nn(C)/c(=N/C4CCCCC4)s3)cc2)CC1 [I37,11, 4-(5-Cyclohexylimino-4-methyl-4,5-dihydro-[1,3,4]thiadiazol-2-yl)-N-methyl-N-(1-methyl-piperidin-4-yl)-benzamide]
240 | Cn1nc(-c2ccc(O)cc2)s/c1=N\C1CCCCC1 [Example I33, 4-(5-Cyclohexylimino-4-methyl-4,5-dihydro-[1,3,4]thiadiazol-2-yl)-phenol; compound with 1,1,1-trifluoro-methanesulfonic acid]
460 | COc1cc(-c2nn(C)/c(=N/C3CCCCC3)s2)ccc1O [Example I27, 4-(5-Cyclohexylimino-4-methyl-4,5-dihydro-[1,3,4]thiadiazol-2-yl)-2-methoxy-phenol]
75 | CN(C)CCNC(=O)c1ccc(-c2nn(C)/c(=N/C3CCCCC3)s2)cc1 [I37,9, 4-(5-Cyclohexylimino-4-methyl-4,5-dihydro[1,3,4]thiadiazol-2-yl)-N-(2-dimethylamino-ethyl)-benzamide]
270 | Cn1nc(-c2ccc(C#N)cc2)s/c1=N\C1CCCCC1 [Example I14, 4-(5-Cyclohexylimino-4-methyl-4,5-dihydro-[1,3,4]thiadiazol-2-yl)-benzonitrile]
280 | Cn1nc(-c2ccc(S(C)(=O)=O)cc2)s/c1=N\[C@@H]1CCCC[C@H]1O (relative stereo) [Example I9, (1R*,2R*)-2-[5-(4-Methanesulfonyl-phenyl)-3-methyl-3H-[1,3,4]thiadiazol-2-ylideneamino-cyclohexanol]
300 | CN(C)c1ccc(-c2nn(C)/c(=N/C3CCCCC3)s2)cc1 [Example I29, [4-(5-Cyclohexylimino-4-methyl-4,5-dihydro-[1,3,4]thiadiazol-2-yl)-phenyl]-dimethyl-amine]
44 | Cn1nc(-c2ccc(C(=O)NCc3ccncc3)cc2)s/c1=N\C1CCCCC1 [I37,10, 4-(5-Cyclohexylimino-4-methyl-4,5-dihydro[1,3,4]thiadiazol-2-yl)-N-pyridin-4-ylmethyl-benzamide]
450 | Cn1nc(-c2ccc3c(c2)OCO3)s/c1=N\C1CCCCC1 [Example I40, (5-Benzo[1,3]dioxol-5-yl-3-methyl-3H-[1,3,4]thiadiazol-2-ylidene)-cyclohexyl-amine]
230 | COc1ccc(-c2nn(C)/c(=N/C3CCCCC3)s2)cc1O [Example I32, 5-(5-Cyclohexylimino-4-methyl-4,5-dihydro-[1,3,4]thiadiazol-2-yl)-2-methoxy-phenol; compound with 1,1,1-trifluoro-methanesulfonic acid]
